Holding throughout (assay type): cell-based
The subject of test [1] is Serratia marcescens ATCC 14756. As to the kind of experiment: Time Kill Efficacy, chelant comparison. Particulars: chelant added to cationic active-containing base formula. Here is the method:
Testing was performed to assess performance of differing chelants. Multiple amino acid based chelants were tested in exemplary compositions of the invention and tested against a control formulation containing no chelant.
Formula 5A served as the control having no chelant. Formulas 5B and 5C included GLDA and MGDA, respectively, for comparative testing against each other and the control. The compositions were inoculated with Serratia marcescens ATCC 14756 for 30 seconds at room temperature. Before adding the antimicrobial compositions, the inoculum numbers were measured (CFO/mL). The average count was […] providing a log average of 8.06. The inoculated surface was contacted with the various formulations for 30 seconds and the log reduction was measured.

Test [2] deals with Escherichia coli ATCC 11229. Description: in vitro Time Kill testing (ASTM E 2315), cationic-compatible surfactants, Table 4. As to conditions: 1% surfactant in 0.2% benzalkonium chloride formula. The protocol:
In Examples 1-4, the survival of challenged organisms exposed to an antimicrobial test composition was measured using in vitro Time Kill testing, based on ASTM E 2315 Standard Guide for Assessment of Antimicrobial Activity Using a Time Kill Procedure. Utilizing this method, the inoculum is prepared by growing a microbial culture using a D/E agar medium. The microbial population then is washed from the agar with sterile physiological saline and the population of the microbial suspension is adjusted to around 10^8 colony forming units (cfu) per ml. An aliquot of the test formula, or a dilution thereof, is brought into contact with this known population of bacteria at ambient temperature. The test composition is neutralized after a set amount of time, which arrests the antimicrobial activity of the test sample. The log reduction from the original bacteria population is calculated using the following formula: log10 reduction=log10(control)−log10(test sample survivors) Each test was performed in duplicate and the average log reduction reported. The efficacy of formulations with differing cationic-compatible surfactants with the same alkyl chain length is outlined in Tables 3 and 4. In each instance, citric acid and/or potassium hydroxide were used to maintain a pH of 6, and water was added quantum satis. […]

Test [3] has as its system Serratia marcescens ATCC 14756. Description: in vitro Time Kill testing (ASTM E 2315), Serratia marcescens. Particulars: 1.2% cationic surfactant with 0.6% benzalkonium chloride, Table 6. Here is the method: In Examples 1-4, the survival of challenged organisms exposed to an antimicrobial test composition was measured using in vitro Time Kill testing, based on ASTM E 2315 Standard Guide for Assessment of Antimicrobial Activity Using a Time Kill Procedure. Utilizing this method, the inoculum is prepared by growing a microbial culture using a D/E agar medium. The microbial population then is washed from the agar with sterile physiological saline and the population of the microbial suspension is adjusted to around 10^8 colony forming units (cfu) per ml. An aliquot of the test formula, or a dilution thereof, is brought into contact with this known population of bacteria at ambient temperature. The test composition is neutralized after a set amount of time, which arrests the antimicrobial activity of the test sample. The log reduction from the original bacteria population is calculated using the following formula: log10 reduction=log10(control)−log10(test sample survivors) Each test was performed in duplicate and the average log reduction reported.
Once it was determined that cationic surfactants with chain lengths having 18 or less carbons provided enhanced microbiological efficacy, three such cationic surfactants were evaluated against Serratia marcescens, a Gram negative microorganism. […]

Entries after “also recorded” stand apart in the source; their conditions may differ.

In the case of `O=C(O)CC[C@@H](C(=O)O)N(CC(=O)O)CC(=O)O` [GLDA, Glutamic acid diacetic acid], the “effect of chelant on antimicrobial efficacy of base formula” value in test [1] is “did not show any enhancement of antimicrobial efficacy”.
Still for that read-out and setting: as for `CC(C(=O)O)N(CC(=O)O)CC(=O)O` (stereo not drawn) [MGDA, Methylglycinediacetic acid], the entry is “significantly enhance the biocidal activity; also recorded: much higher log reduction”.
In the case of Coco Glucoside, in test [2], the “impact on microbiological efficacy” value was “negative impact on microbiological efficacy”.
Turning to `CCCCCCCCCCCCCCCC(=O)NCCC[N+](C)(C)C.[Cl-]` [Palmitamidopropyl trimonium chloride, Palmitamidopropyl Trimonium Chloride], the “degree of microbiological efficacy” value in test [3] is on record as “lowest degree of microbiological efficacy”.
As to `CCCCCCCCCCCC[N+](C)(C)C.[Cl-]` [Laurtrimonium chloride, Lauryl Trimethyl Ammonium Chloride], the “degree of microbiological efficacy” value in test [3] is listed as “highest degree of efficacy”.
For Cocamidopropyl Betaine, the “impact on microbiological efficacy” value in test [2] was “significant negative impact on microbiological efficacy”.

The record behind these values is patent US11930819B2, “Antimicrobial compositions with enhanced efficacy” (ECOLAB USA INC., priority 2017, dated 2024).
